Test results: the NIST ThermoML archive (doi:10.1016/j.jct.2011.09.027)

Conditions: Liquid; for viscosity: Concentric cylinders viscometry; for mass density: Vibrating tube method

CCOS(=O)(=O)[O-].CCn1cc[n+](C)c1 [1-ethyl-3-methylimidazolium ethyl sulfate]
Conditions | mass density [kg/m3] | viscosity [mPa·s]
278.15 K, 101.33 kPa | – | 309.1
283.12 K, 19658 kPa | 1255.37 | –
283.13 K, 29946 kPa | 1259.21 | –
283.14 K, 98469 kPa | 1282.72 | –
283.15 K, 101.33 kPa | 1247.88 | 225.2
283.15 K, 40036 kPa | 1262.89 | –
283.15 K, 49963 kPa | 1266.44 | –
283.15 K, 59714 kPa | 1269.86 | –
283.15 K, 69986 kPa | 1273.38 | –
283.15 K, 79625 kPa | 1276.61 | –
283.15 K, 89964 kPa | 1280 | –
283.15 K, 109866 kPa | 1286.29 | –
283.15 K, 120746 kPa | 1289.61 | –
283.15 K, 129872 kPa | 1292.32 | –
283.15 K, 139485 kPa | 1295.11 | –
283.16 K, 1391 kPa | 1248.37 | –
283.18 K, 9875 kPa | 1251.65 | –
283.19 K, 5138 kPa | 1249.82 | –
293.13 K, 39626 kPa | 1256.03 | –
293.14 K, 1092 kPa | 1241.38 | –
293.14 K, 3910 kPa | 1242.48 | –
293.14 K, 9925 kPa | 1244.83 | –
293.14 K, 19948 kPa | 1248.68 | –
293.14 K, 29954 kPa | 1252.45 | –
293.14 K, 123824 kPa | 1284.35 | –
293.14 K, 129866 kPa | 1286.19 | –
293.14 K, 140209 kPa | 1289.28 | –
293.15 K, 101.33 kPa | 1241.01 | 123.5
293.15 K, 49964 kPa | 1259.78 | –
293.15 K, 89997 kPa | 1273.58 | –
293.15 K, 99862 kPa | 1276.81 | –
293.15 K, 109863 kPa | 1280.01 | –
293.16 K, 80177 kPa | 1270.3 | –
293.17 K, 69997 kPa | 1266.83 | –
293.18 K, 60017 kPa | 1263.35 | –
298.13 K, 19821 kPa | 1245.34 | –
298.13 K, 29997 kPa | 1249.26 | –
298.13 K, 39886 kPa | 1252.98 | –
298.15 K, 49994 kPa | 1256.71 | –
298.15 K, 58874 kPa | 1259.91 | –
298.15 K, 69996 kPa | 1263.83 | –
298.16 K, 101.33 kPa | 1237.53 | 97.2
298.16 K, 10471 kPa | 1241.67 | –
298.16 K, 79619 kPa | 1267.14 | –
298.16 K, 89998 kPa | 1270.63 | –
298.16 K, 99253 kPa | 1273.66 | –
298.16 K, 109867 kPa | 1277.06 | –
298.16 K, 120082 kPa | 1280.24 | –
298.16 K, 129865 kPa | 1283.2 | –
298.16 K, 139020 kPa | 1285.9 | –
298.17 K, 5192 kPa | 1239.56 | –
298.19 K, 981 kPa | 1237.87 | –
303.15 K, 101.33 kPa | – | 77.1
313.1 K, 944 kPa | 1227.8 | –
313.14 K, 4705 kPa | 1229.35 | –
313.14 K, 39636 kPa | 1243.24 | –
313.14 K, 49994 kPa | 1247.16 | –
313.14 K, 60122 kPa | 1250.92 | –
313.15 K, 101.33 kPa | 1227.47 | 50.9
313.15 K, 19818 kPa | 1235.48 | –
313.15 K, 30003 kPa | 1239.51 | –
313.15 K, 69996 kPa | 1254.49 | –
313.15 K, 109873 kPa | 1268.13 | –
313.15 K, 120354 kPa | 1271.49 | –
313.15 K, 129874 kPa | 1274.47 | –
313.16 K, 9378 kPa | 1231.27 | –
313.16 K, 79657 kPa | 1257.92 | –
313.16 K, 89993 kPa | 1261.49 | –
313.16 K, 99450 kPa | 1264.69 | –
313.16 K, 138377 kPa | 1277.07 | –
323.15 K, 101.33 kPa | – | 35.1
333.12 K, 19852 kPa | 1222.8 | –
333.12 K, 79184 kPa | 1246.16 | –
333.13 K, 9972 kPa | 1218.57 | –
333.13 K, 89997 kPa | 1250.05 | –
333.13 K, 97104 kPa | 1252.54 | –
333.15 K, 101.33 kPa | – | 25.2
